Patent publication US9802918B2, “Pyridineamine compounds useful as Pim kinase inhibitors” (Incyte Corporation, priority 2015, dated 2017)

How the values were obtained:
Assay type in all cases: biochemical
Pim-1 = Pim-1 (Homo sapiens (Human), UniProt P11309); test: Pim-1 kinase assay; details: 1 mM ATP; read-out: Pim1 IC50
Procedure: Supplementation of the STOP buffer with beads and stopping the reactions were done under reduced light. Prior to the stopping reactions STOP buffer with beads was preincubated for 1 h in the dark at room temperature. After stopping the reactions, plates were incubated for 1 h in the dark at room temperature before reading on a PHERAstar FS plate reader (BMG Labtech) under reduced light.

Pim-2 = Pim-2 (Homo sapiens (Human), UniProt Q9P1W9); test: Pim-2 kinase assay; details: 1 mM ATP; read-out: Pim2 IC50
Outline: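 Pim-2 (1 nM) with fluorescein-CREBtide ([…]) and 1 mM ATP in Tris pH 7.5, MgCl2, DTT buffer, 2 h at 25 °C. Stopped with EDTA plus Tb-anti-CREB pSer133 antibody; phosphorylation read by TR-FRET after 30 min.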

Pim-3 = Pim-3 (Homo sapiens (Human), UniProt Q86V86); test: Pim-3 kinase assay; details: 1 mM ATP; read-out: Pim3 IC50
Outline: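 Human Pim-3 at 1.25 pM phosphorylated […] biotin-BAD peptide with 1 mM ATP for 1 h at 25° C, in pH 7.5 Tris buffer with 5 mM MgCl2 and 5 mM DTT. Reactions were stopped with EDTA buffer containing phospho-Bad (Ser112) antibody and AlphaScreen donor/acceptor beads. Plates were read after 1 h dark incubation at room temperature.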

Sequence of Pim-2 (Q9P1W9 whole entry): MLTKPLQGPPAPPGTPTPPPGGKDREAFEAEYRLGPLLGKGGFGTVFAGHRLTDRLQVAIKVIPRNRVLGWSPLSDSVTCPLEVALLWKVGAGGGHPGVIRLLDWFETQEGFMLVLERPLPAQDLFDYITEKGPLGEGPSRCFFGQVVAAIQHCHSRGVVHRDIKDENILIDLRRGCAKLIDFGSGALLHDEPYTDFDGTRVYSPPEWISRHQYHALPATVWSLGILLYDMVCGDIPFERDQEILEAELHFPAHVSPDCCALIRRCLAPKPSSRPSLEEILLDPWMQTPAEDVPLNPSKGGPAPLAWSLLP
Sequence of Pim-1 (P11309 whole entry): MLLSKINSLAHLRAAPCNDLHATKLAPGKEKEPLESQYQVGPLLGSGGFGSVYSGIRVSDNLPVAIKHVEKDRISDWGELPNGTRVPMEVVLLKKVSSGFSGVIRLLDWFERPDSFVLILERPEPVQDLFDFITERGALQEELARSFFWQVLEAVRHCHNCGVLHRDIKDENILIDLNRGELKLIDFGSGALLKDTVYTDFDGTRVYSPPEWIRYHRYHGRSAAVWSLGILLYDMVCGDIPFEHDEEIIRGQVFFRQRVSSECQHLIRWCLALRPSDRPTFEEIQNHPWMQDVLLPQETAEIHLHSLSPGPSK

| Structure (SMILES) | IC50 (Pim-1) | IC50 (Pim-2) | IC50 (Pim-3) |
| --- | --- | --- | --- |
| C[C@@H]1C[C@H](N)CN(c2ccncc2NCc2ccc(F)c(-c3c(F)cc(OC4CCOCC4)cc3F)n2)C1 [Example 78, 4-[(3S,5R)-3-Amino-5-methylpiperidin-1-yl]-N-({6-[2,6-difluoro-4-(tetrahydro-2H-pyran-4-yloxy)phenyl]-5-fluoropyridin-2-yl}methyl)pyridin-3-amine] | < 10 nM | ≤ 100 nM | ≤ 10 nM |
| COc1cc(F)c(-c2nc(CNc3cnccc3N3C[C@@H](N)[C@H](O)[C@@H](C)C3)ccc2F)c(F)c1 [Example 82, (3R,4R,5S)-3-Amino-1-[3-({[6-(2,6-difluoro-4-methoxyphenyl)-5-fluoropyridin-2-yl]methyl}amino)pyridin-4-yl]-5-methylpiperidin-4-ol] | < 10 nM | ≤ 100 nM | ≤ 10 nM |
| COc1cc(F)c(-c2nc(CNc3cnccc3N3C[C@H](C)C[C@H](N)C3)ccc2F)c(F)c1 [Example 83, 4-[(3S,5R)-3-Amino-5-methylpiperidin-1-yl]-N-{[6-(2,6-difluoro-4-methoxyphenyl)-5-fluoropyridin-2-yl]methyl}pyridin-3-amine] | < 10 nM | ≤ 100 nM | ≤ 10 nM |
| C[C@@H]1C[C@H](N)CN(c2ccncc2NCc2ccc(F)c(-c3ccc(C#N)cc3F)n2)C1 [Example 84, 4-{6-[({4-[(3S,5R)-3-Amino-5-methylpiperidin-1-yl]pyridin-3-yl}amino)methyl]-3-fluoropyridin-2-yl}-3-fluorobenzonitrile] | < 10 nM | 100 to 1000 nM | ≤ 10 nM |
| C[C@@H]1C[C@H](N)CN(c2ccncc2NCc2ccc(F)c(-c3ccc4sccc4c3)n2)C1 [Example 85, 4-[(3S,5R)-3-Amino-5-methylpiperidin-1-yl]-N-{[6-(1-benzothien-5-yl)-5-fluoropyridin-2-yl]methyl}pyridin-3-amine] | < 10 nM | 100 to 1000 nM | ≤ 10 nM |
| C[C@@H]1C[C@H](N)CN(c2ccncc2NCc2ccc(F)c(-c3ccc4c(c3)NC(=O)C4)n2)C1 [Example 86, 6-{6-[({4-[(3S,5R)-3-Amino-5-methylpiperidin-1-yl]pyridin-3-yl}amino)methyl]-3-fluoropyridin-2-yl}-1,3-dihydro-2H-indol-2-one] | < 10 nM | 100 to 1000 nM | ≤ 10 nM |
| C[C@H]1CN(c2c(NCc3ccc(F)c(-c4c(F)cccc4F)n3)cnc3c2CCO3)C[C@@H](N)[C@@H]1O [Example 88, (3R,4R,5S)-3-Amino-1-[5-({[6-(2,6-difluorophenyl)-5-fluoropyridin-2-yl]methyl}amino)-2,3-dihydrofuro[2,3-b]pyridin-4-yl]-5-methylpiperidin-4-ol] | < 10 nM | 1000 to 10000 nM | ≤ 10 nM |
| C[C@@H]1C[C@H](N)CN(c2c(NCc3ccc(F)c(-c4c(F)cccc4F)n3)cnc3c2CCC3)C1 [Example 89, 4-[(3S,5R)-3-Amino-5-methylpiperidin-1-yl]-N-{[6-(2,6-difluorophenyl)-5-fluoropyridin-2-yl]methyl}-6,7-dihydro-5H-cyclopenta[b]pyridin-3-amine] | < 10 nM | 100 to 1000 nM | ≤ 10 nM |
| N[C@@H]1CN(c2ccncc2NCc2ccc(F)c(-c3c(F)cccc3F)n2)CC[C@H]1F [Example 90, 4-[(3R,4R)-3-Amino-4-fluoropiperidin-1-yl]-N-{[6-(2,6-difluorophenyl)-5-fluoropyridin-2-yl]methyl}pyridin-3-amine] | < 10 nM | 1000 to 10000 nM | ≤ 10 nM |
| C[C@@H]1C[C@H](N)CN(c2ccncc2NCc2ccc3ccc(-c4ccc5c(c4)OCC5)cc3n2)C1 [Example 91, 4-[(3S,5R)-3-Amino-5-methylpiperidin-1-yl]-N-{[7-(2,3-dihydro-1-benzofuran-6-yl)quinolin-2-yl]methyl}pyridin-3-amine] | < 10 nM | 100 to 1000 nM | ≤ 10 nM |
| C[C@@H]1C[C@H](N)CN(c2ccncc2NCc2ccc3ccc(-c4ccn5ccnc5c4)cc3n2)C1 [Example 92, 4-[(3S,5R)-3-Amino-5-methylpiperidin-1-yl]-N-[(7-imidazo[1,2-a]pyridin-7-ylquinolin-2-yl)methyl]pyridin-3-amine] | < 10 nM | 100 to 1000 nM | ≤ 10 nM |
| C[C@H]1CN(c2ccncc2NCc2ccc3ccc(-c4ccn5ccnc5c4)cc3n2)C[C@@H](N)[C@@H]1O [Example 93, (3R,4R,5S)-3-Amino-1-(3-{[(7-imidazo[1,2-a]pyridin-7-ylquinolin-2-yl)methyl]amino}pyridin-4-yl)-5-methylpiperidin-4-ol] | < 10 nM | 100 to 1000 nM | ≤ 10 nM |
| C[C@H]1CN(c2ccncc2NCc2ccc3occ(-c4c(F)cc(CO)cc4F)c3n2)C[C@@H](N)[C@@H]1O [Example 96, (3R,4R,5S)-3-amino-1-(3-(((3-(2,6-difluoro-4-(hydroxymethyl)phenyl)furo[3,2-b]pyridin-5-yl)methyl)amino)pyridin-4-yl)-5-methylpiperidin-4-ol] | < 10 nM | 100 to 1000 nM | ≤ 10 nM |
| C[C@H]1CN(c2ccncc2NCc2ccc3occ(-c4ccc(CO)cc4F)c3n2)C[C@@H](N)[C@@H]1O [Example 97, (3R,4R,5S)-3-amino-1-(3-(((3-(2-fluoro-4-(hydroxymethyl)phenyl)furo[3,2-b]pyridin-5-yl)methyl)amino)pyridin-4-yl)-5-methylpiperidin-4-ol] | 10 to 50 nM | 100 to 1000 nM | ≤ 10 nM |
| CC(C)c1coc2ccc(CNc3cnccc3N3C[C@H](C)C[C@H](N)C3)nc12 [Example 98, 4-[(3S,5R)-3-Amino-5-methylpiperidin-1-yl]-N-[(3-isopropylfuro[3,2-b]pyridin-5-yl)methyl]pyridin-3-amine] | < 10 nM | 100 to 1000 nM | ≤ 10 nM |
| C[C@@H]1C[C@H](N)CN(c2ccncc2NCc2ccc3occ(-c4c(F)cc(CO)cc4F)c3n2)C1 [Example 99, (4-(5-((4-((3S,5R)-3-amino-5-methylpiperidin-1-yl)pyridin-3-ylamino)methyl)furo[3,2-b]pyridin-3-yl)-3,5-difluorophenyl)methanol] | < 10 nM | ≤ 100 nM | ≤ 10 nM |
| C[C@@H]1C[C@H](N)CN(c2ccncc2NCc2ccc3occ(-c4ccc(CO)cc4F)c3n2)C1 [Example 100, (4-(5-((4-((3S,5R)-3-amino-5-methylpiperidin-1-yl)pyridin-3-ylamino)methyl)furo[3,2-b]pyridin-3-yl)-3-fluorophenyl)methanol] | < 10 nM | ≤ 100 nM | ≤ 10 nM |
| C[C@@H]1C[C@H](N)CN(c2ccncc2NCc2ccc3occ(C4CC4)c3n2)C1 [Example 102, 4-[(3S,5R)-3-Amino-5-methylpiperidin-1-yl]-N-[(3-cyclopropylfuro[3,2-b]pyridin-5-yl)methyl]pyridin-3-amine] | < 10 nM | 100 to 1000 nM | ≤ 10 nM |
| C[C@@H]1C[C@H](N)CN(c2ccncc2NCc2ccc(F)c(-c3c(F)cc(OCC(C)(C)O)cc3F)n2)C1 [Example 103, 1-(4-{6-[({4-[(3S,5R)-3-Amino-5-methylpiperidin-1-yl]pyridin-3-yl}amino)methyl]-3-fluoropyridin-2-yl}-3,5-difluorophenoxy)-2-methylpropan-2-ol] | < 10 nM | ≤ 100 nM | ≤ 10 nM |
| C[C@H]1CN(c2ccncc2NCc2ccc(F)c(-c3c(F)cc(OCC(C)(C)O)cc3F)n2)C[C@@H](N)[C@@H]1O [Example 104, (3R,4R,5S)-3-Amino-1-{3-[({6-[2,6-difluoro-4-(2-hydroxy-2-methylpropoxy)phenyl]-5-fluoropyridin-2-yl}methyl)amino]pyridin-4-yl}-5-methylpiperidin-4-ol] | < 10 nM | 100 to 1000 nM | ≤ 10 nM |
| C[C@@H]1C[C@H](N)CN(c2ccncc2NCc2ccc(F)c(-c3c(F)cc(C(C)(C)O)cc3F)n2)C1 [Example 105, 2-(4-{6-[({4-[(3S,5R)-3-Amino-5-methylpiperidin-1-yl]pyridin-3-yl}amino)methyl]-3-fluoropyridin-2-yl}-3,5-difluorophenyl)propan-2-ol] | < 10 nM | ≤ 100 nM | ≤ 10 nM |
| C[C@H]1CN(c2ccncc2NCc2ccc(F)c(-c3c(F)cc(C(C)(C)O)cc3F)n2)C[C@@H](N)[C@@H]1O [Example 106, (3R,4R,5S)-3-Amino-1-{3-[({6-[2,6-difluoro-4-(1-hydroxy-1-methylethyl)phenyl]-5-fluoropyridin-2-yl}methyl)amino]pyridin-4-yl}-5-methylpiperidin-4-ol] | < 10 nM | ≤ 100 nM | ≤ 10 nM |
| C[C@H]1CN(c2ccncc2NCc2ccc3ccc(-c4ccn(C)c(=O)c4F)cc3n2)C[C@@H](N)[C@@H]1O [Example 107, 4-{2-[({4-[(3R,4R,5S)-3-Amino-4-hydroxy-5-methylpiperidin-1-yl]pyridin-3-yl}amino)methyl]quinolin-7-yl}-3-fluoro-1-methylpyridin-2(1H)-one] | < 10 nM | ≤ 100 nM | ≤ 10 nM |
| C[C@@H]1C[C@H](N)CN(c2ccncc2NCc2nc(-c3c(F)cccc3F)c(F)cc2N)C1 [Example 108, 2-[({4-[(3S,5R)-3-Amino-5-methylpiperidin-1-yl]pyridin-3-yl}amino)methyl]-6-(2,6-difluorophenyl)-5-fluoropyridin-3-amine] | < 10 nM | ≤ 100 nM | ≤ 10 nM |
